Source: US7071226B1, “Amino-functionalized 1,2,4-trioxanes useful as antimalarial agents and process for preparation thereof” (Council of Scientific and Industrial Research, priority 2004, dated 2006)
Like-named read-outs stand apart in the source and are kept apart here.

System: multidrug resistant strain of Plasmodium yoelii Nigeriensis
Experiment: Antimalarial activity against multidrug resistant P. yoelii in Swiss mice (4-day treatment, observed till day 28)
Assay type: in vivo
Settings: for inhibition in vivo at 24 mg/kg/day / inhibition in vivo at 48 mg/kg/day / responders at 24 mg/kg/day / responders at 48 mg/kg/day / inhibition in vivo at 96 mg/kg/day / responders at 96 mg/kg/day / inhibition in vivo at 12 mg/kg/day / responders at 12 mg/kg/day: Plasmodium yoelii; for inhibition in vivo at 24 mg/kg/day / inhibition in vivo at 48 mg/kg/day / inhibition in vivo at 96 mg/kg/day / inhibition in vivo at 12 mg/kg/day: 96 h, read-out: % Suppression on Day 4; for responders at 24 mg/kg/day / responders at 48 mg/kg/day / responders at 96 mg/kg/day / responders at 12 mg/kg/day: 672 h
Method: The antimalarial activity of the test compounds was evaluated in rodent using multidrug resistant strain of Plasmodium yoelii Nigeriensis in Swiss mice.
Random bred Swiss mice of either sex (20±2 gm) were inoculated intraperitoneally with 1×10^5 P. yoelii (MDR) parasites on day zero. Treatments with test compounds were administered to group of 5 mice each at different dose levels ranging between 12–96 mg/kg/day. Treatment was administered in groundnut oil intramuscularly and orally for 4 consecutive days (day 0–3). Blood smears from experimental mice were observed on day 4 and 7, day 10 and thereafter at regular intervals till day 28 or death of animal. Parasitaemia level on day 4 was compared with vehicle control group and percent suppression of parasitaemia in treated groups was calculated. […] The dose at which no parasitaemia develop during the observation period was reported as curative dose.

[1] = po, read-out: Mice alive on day-28
[2] = Swiss mice, 96 mg/kg/day, im, day 0-3
[3] = Swiss mice, 96 mg/kg/day, im, day 0-3, in groundnut oil
[4] = po, Swiss mice, 96 mg/kg/day, oral, day 0-3, in groundnut oil
[5] = po, Swiss mice, 96 mg/kg/day, oral, day 0-3, read-out: Mice alive on day-28 (converted)
[6] = im, Swiss mice, 96 mg/kg/day, im, day 0-3, in groundnut oil
[7] = im, Swiss mice, 96 mg/kg/day, im, day 0-3, read-out: Mice alive on day-28 (converted)
[8] = po, Swiss mice, 48 mg/kg/day, oral, day 0-3, in groundnut oil
[9] = po, Swiss mice, 48 mg/kg/day, oral, day 0-3, read-out: Mice alive on day-28 (converted)
[10] = Swiss mice, 48 mg/kg/day, oral, day 0-3, 48 mg/kg/day
[11] = po, Swiss mice, oral, day 0-3, in groundnut oil
[12] = po, Swiss mice, 24 mg/kg/day, oral, day 0-3, in groundnut oil
[13] = po, Swiss mice, oral, day 0-3, read-out: Mice alive on day-28
[14] = po, Swiss mice, 24 mg/kg/day, oral, day 0-3, read-out: Mice alive on day-28 (converted)
[15] = Swiss mice, 48 mg/kg/day, oral, day 0-3, in groundnut oil
[16] = Swiss mice, 96 mg/kg/day, oral, day 0-3
[17] = Swiss mice, 96 mg/kg/day, oral, day 0-3, in groundnut oil
[18] = Swiss mice, 24 mg/kg/day, oral, day 0-3, in groundnut oil

Compound	inhibition in vivo at 96 mg/kg/day [4]	responders at 96 mg/kg/day [5]	inhibition in vivo at 48 mg/kg/day [8]	responders at 48 mg/kg/day [9]	inhibition in vivo at 24 mg/kg/day [12]	responders at 24 mg/kg/day [14]	also measured
CCN(CC)CCCC(C)Nc1ccnc2cc(Cl)ccc12 (stereo not drawn) [Chloroquine, reference compound]							inhibition in vivo at 24 mg/kg/day (po): 100%; inhibition in vivo at 48 mg/kg/day (po): 100%; responders at 24 mg/kg/day [1]: 0%; responders at 48 mg/kg/day [1]: 40%
C=C(c1ccccc1)C1COC2(CCC(=O)CC2)OO1 (stereo not drawn) [Compound 3a, 3-(1-Phenyl-Vinyl)-1,2,5-Trioxaspiro[5.5]undec-9-one]							Mice alive on day-28 [2]: 0/5; % Suppression on Day 4 [3]: 99%
C=C(c1ccc(-c2ccccc2)cc1)C1COC2(CCC(=O)CC2)OO1 (stereo not drawn) [Compound 3b, 3-(1-Biphenyl-4yl-Vinyl)-1,2,5-Trioxaspiro[5.5]undec-9-one]							Mice alive on day-28 [2]: 1/5; % Suppression on Day 4 [3]: 100%
C=C(c1ccc(Cl)cc1)C1COC2(CCC(=O)CC2)OO1 (stereo not drawn) [Compound 3c, 3-[1-(4-Chloro-Phenyl)-Vinyl]-1,2,5-Trioxa-Spiro[5.5]undecan-9-one]	100%	0%					
C=C(c1ccccc1)C1COC2(CCC(Nc3ccc(Cl)cc3)CC2)OO1 (stereo not drawn) [Compound 4aa, (4-Chloro-Phenyl)-[3-(1-Phenyl-Vinyl)-1,2,5-Trioxa-Spiro[5.5]undec-9-yl]-Amine]	100%	100%	100%	60%			inhibition in vivo at 96 mg/kg/day [6]: 71%; responders at 96 mg/kg/day [7]: 40%
C=C(c1ccccc1)C1COC2(CCC(Nc3ccccc3-c3ccccc3)CC2)OO1 (stereo not drawn) [Compound 4ab, Biphenyl-2-yl-[3-(1-Phenyl-Vinyl)-1,2,5-Trioxa-Spiro[5.5]undec-9-yl]Amine]	100%	100%	100%				Mice alive on day-28 [10]: 0/5
C=C(c1ccccc1)C1COC2(CCC(Nc3ccccc3-c3ccccc3)CC2)OO1 (stereo not drawn) [Compound 4ac, Biphenyl-2-yl-[3-(1-Phenyl-Vinyl)-1,2,5-Trioxa-Spiro[5.5]undec-9-yl]Amine]					100%	40%	inhibition in vivo at 96 mg/kg/day [6]: 74%; responders at 96 mg/kg/day [7]: 0%; inhibition in vivo at 12 mg/kg/day [11]: 100%; responders at 12 mg/kg/day [13]: 0%; % Suppression on Day 4 [15]: 100%; Mice alive on day-28 [10]: 5/5; Mice alive on day-28 [16]: 5/5; % Suppression on Day 4 [17]: 100%
C=C(c1ccccc1)C1COC2(CCC(Nc3ccc(-c4ccccc4)cc3)CC2)OO1 (stereo not drawn) [Compound 4ad, Biphenyl-4-yl-[3-(1-Phenyl-Vinyl)-1,2,5-Trioxa-Spiro[5.5]undec-9-yl]Amine]	100%	100%	100%	100%	100%	60%	inhibition in vivo at 12 mg/kg/day [11]: 99%; responders at 12 mg/kg/day [13]: 0%
C=C(c1ccccc1)C1COC2(CCC(Nc3ccc4c(c3)-c3ccccc3C4)CC2)OO1 (stereo not drawn) [Compound 4ae]							Mice alive on day-28 [16]: 5/5; % Suppression on Day 4 [17]: 100%
C=C(c1ccccc1)C1COC2(CCC(Nc3cccc(C(F)(F)F)c3)CC2)OO1 (stereo not drawn) [Compound 4ah, [3-(1-Phenyl-Vinyl)-1,2,5-Trioxa-Spiro[5.5]undec-9-yl]-(3-Trifluoromethyl-Phenyl)-Amine]	100%	100%	100%	100%	100%	20%	inhibition in vivo at 96 mg/kg/day [6]: 83%; responders at 96 mg/kg/day [7]: 0%
C=C(c1ccc(-c2ccccc2)cc1)C1COC2(CCC(Nc3ccc(Cl)cc3)CC2)OO1 (stereo not drawn) [Compound 4ba, [3-(1-Biphenyl-4-yl-Vinyl)-1,2,5-Trioxa-Spiro[5.5]undec-9-yl]-(4-Chloro-Phenyl)-Amine]	100%	100%					
C=C(c1ccc(-c2ccccc2)cc1)C1COC2(CCC(Nc3ccccc3C(F)(F)F)CC2)OO1 (stereo not drawn) [Compound 4bg, [3-(1-Biphenyl-4-yl-vinyl)-1,2,5-trioxa-spiro[5.5]undec-9-yl]-(2-trifluoromethyl-phenyl)-amine]	100%	40%					
C=C(c1ccc(Cl)cc1)C1COC2(CCC(Nc3ccc(C)cc3)CC2)OO1 (stereo not drawn) [Compound 4cb, {3-[1-(4-Chloro-Phenyl)-Vinyl]-1,2,5-Trioxa-Spiro[5.5]undec-9-yl}-p-Tolyl-Amine]			100%	100%			
C=C(c1ccc(Cl)cc1)C1COC2(CCC(Nc3ccc(Cl)cc3)CC2)OO1 (stereo not drawn) [Compound 4cc]							Mice alive on day-28 (Swiss mice, 24 mg/kg/day, oral, day 0-3): 4/5; % Suppression on Day 4 [18]: 100%; Mice alive on day-28 (Swiss mice, 48 mg/kg/day, oral, day 0-3): 5/5; % Suppression on Day 4 [15]: 100%
C=C(c1ccc(Cl)cc1)C1COC2(CCC(Nc3cc(Cl)cc(Cl)c3)CC2)OO1 (stereo not drawn) [Compound 4ce, {3-[1-(4-Chloro-phenyl)-vinyl]-1,2,5-trioxa-spiro[5.5]undec-9-yl}-(3,5-dichloro-phenyl)-amine]			100%		100%	40%	Mice alive on day-28 [10]: 4/5
C=C(c1ccc(Cl)cc1)C1COC2(CCC(Nc3cc(Cl)cc(Cl)c3)CC2)OO1 (stereo not drawn) [Compound 4cf, {3-[1-(4-Chloro-phenyl)-vinyl]-1,2,5-trioxa-spiro[5.5]undec-9-yl}-(3,5-dichloro-phenyl)-amine]							% Suppression on Day 4 [18]: 100%; Mice alive on day-28 (Swiss mice, 24 mg/kg/day, oral, day 0-3, 24 mg/kg/day): 1/5; % Suppression on Day 4 [15]: 100%; Mice alive on day-28 [10]: 2/5
C=C(c1ccc(Cl)cc1)C1COC2(CCC(Nc3cccc4ccccc34)CC2)OO1 (stereo not drawn) [Compound 4ch, {3-[1-(4-Chloro-phenyl)-vinyl]-1,2,5-trioxa-spiro[5.5]undec-9-yl}-naphthalen-1-yl-amine]	100%	40%					
C=C(c1ccc(Cl)cc1)C1COC2(CCC(Nc3ccccc3-c3ccccc3)CC2)OO1 (stereo not drawn) [Compound 4cj, Biphenyl-2-yl-{3-[1-(4-Chloro-Phenyl)-Vinyl]-1,2,5-Trioxa-Spiro[5.5]undec-9-yl}-Amine]			100%	100%	100%	40%	
C=C(c1ccc(Cl)cc1)C1COC2(CCC(Nc3ccc(-c4ccccc4)cc3)CC2)OO1 (stereo not drawn) [Compound 4ck, Biphenyl-4-yl-{3-[1-(4-Chloro-Phenyl)-Vinyl]-1,2,5-Trioxa-Spiro[5.5]undec-9-yl}-Amine]	100%	40%					
C=C(c1ccc(Cl)cc1)C1COC2(CCC(Nc3cccc(C(F)(F)F)c3)CC2)OO1 (stereo not drawn) [Compound 4co, {3-[1-(4-Chloro-phenyl)-vinyl]-1,2,5-trioxa-spiro[5.5]undec-9-yl}-(3-trifluoromethyl-phenyl)-amine]	100%	100%	100%	100%	100%	60%	inhibition in vivo at 96 mg/kg/day [6]: 73%; responders at 96 mg/kg/day [7]: 0%
C=C(c1ccc(OC)cc1)C1COC2(CCC(Nc3ccccc3)CC2)OO1 (stereo not drawn) [Compound 4da, {3-[1-(4-Methoxy-Phenyl)-Vinyl]-1,2,5-Trioxa-Spiro[5.5]undec-9-yl}-Phenyl-Amine]	100%	0%					inhibition in vivo at 96 mg/kg/day [6]: 81%; responders at 96 mg/kg/day [7]: 0%
C=C(c1ccc(OC)cc1)C1COC2(CCC(Nc3ccc(Cl)cc3)CC2)OO1 (stereo not drawn) [Compound 4dc, (4-Chloro-Phenyl)-{3-[1-(4-Methoxy-Phenyl)-Vinyl]-1,2,5-Trioxa-Spiro[5.5]undec-9-yl}-Amine]	100%	100%	100%	100%	100%	80%	inhibition in vivo at 96 mg/kg/day [6]: 100%; responders at 96 mg/kg/day [7]: 80%
C=C(c1ccc(OC)cc1)C1COC2(CCC(Nc3cc(Cl)cc(Cl)c3)CC2)OO1 (stereo not drawn) [Compound 4dd, (3,5-Dichloro-Phenyl)-{3-[1-(4-Methoxy-Phenyl)-Vinyl]-1,2,5-Trioxa-Spiro[5.5]undec-9-yl}-Amine]	100%	80%					
